Test results reported in patent publication US11124788B2, “Asx-specific protein ligase” (NANYANG TECHNOLOGICAL UNIVERSITY, priority 2014, dated 2021).
Where two headings read alike, the source gives them in different places. Residues, ends and D or L forms follow the SMILES beside them. *: point of attachment. AMC = Cc1cc(=O)oc2cc(N*)ccc12; Cbz = O=C(OCc1ccccc1)*

Key:
butelase 1 [1] = assay: Michaelis-Menten kinetics of butelase 1 as a peptide cyclase; type: biochemical, Clitoria ternatea
butelase 1 [2] = assay: In vitro cyclization of peptide/protein substrates by butelase 1 (HPLC/MS yield); type: biochemical, Clitoria ternatea
jack bean legumain = biological target: T1, jack bean legumain (Canavalia ensiformis, UniProt P49046); assay: Hydrolysis of Z-AAN-AMC by jack bean legumain (positive control); type: biochemical; conditions: same experimental conditions, 30 h
T1 construct: purchased Takara Bio (Japan)
T1 sequence (P49046 36-475): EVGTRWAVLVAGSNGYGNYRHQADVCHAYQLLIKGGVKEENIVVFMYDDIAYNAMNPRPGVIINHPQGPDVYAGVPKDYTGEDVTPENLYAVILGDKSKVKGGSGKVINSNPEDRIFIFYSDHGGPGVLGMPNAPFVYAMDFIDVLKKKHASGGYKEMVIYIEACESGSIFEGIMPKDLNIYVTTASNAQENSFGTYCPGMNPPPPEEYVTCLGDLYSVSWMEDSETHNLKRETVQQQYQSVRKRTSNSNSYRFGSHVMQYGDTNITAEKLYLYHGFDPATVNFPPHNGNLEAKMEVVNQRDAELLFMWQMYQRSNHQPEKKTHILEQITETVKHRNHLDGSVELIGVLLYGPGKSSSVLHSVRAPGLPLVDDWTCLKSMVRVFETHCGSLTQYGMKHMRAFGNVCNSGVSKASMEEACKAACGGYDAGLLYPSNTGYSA

butelase 1 [3] = assay: Hydrolysis of Z-AAN-AMC by butelase 1 (asparaginyl endopeptidase activity); type: biochemical, Clitoria ternatea; conditions: 50 mM Z-AAN-AMC, 30 h
[4] = Storage stability of purified butelase 1; conditions: 30 days at 4° C.
[5] = Solubility of butelase 1 in water
[6] = butelase 1 cyclization, 37° C., 0.125 μM enzyme, 12 min (SA-kB1-NHV: 5 nM, 6 min)

Apelin
Km (butelase 1 [1]): 6.7 ± 1.4 µM
kcat (butelase 1 [1]): 5.78 ± 0.25 s⁻¹

SFTI-NHV: SEQ ID NO:135, GRCTKSIPPICFPNHV; 16-residue linear substrate
Cyclization efficiency, SFTI-NHV compared with SFTI-DHV (butelase 1 [2]): significantly more efficient
Km (butelase 1 [1]; [6]): 51 ± 4 µM
kcat (butelase 1 [1]; [6]): 0.6 ± 0.02 s⁻¹
kcat (butelase 1 [1]; butelase 1 cyclization, 37° C., 0.125 μM enzyme, 12 min (SA-kB1-NHV: 5 nM, 6 min), listed as SFT1-NHV): 0.6 ± 0.02 s⁻¹

Cc1cc(=O)oc2cc(NC(=O)[C@H](CC(N)=O)NC(=O)[C@H](C)NC(=O)[C@H](C)NC(=O)OCc3ccccc3)ccc12 [Z-AAN-AMC, N-carbobenzyloxy-Ala-Ala-Asn-7-amido-4-methylcoumarin] (Cbz-Ala-Ala-Asn-{AMC})
Hydrolysis of Z-AAN-AMC (jack bean legumain): completely hydrolyzed
Hydrolyzed product formed (RP-HPLC) (butelase 1 [3]): < 3%

Neuromedin ∪
Km (butelase 1 [1]): 8.7 ± 2.1 µM
kcat (butelase 1 [1]): 5.78 ± 0.36 s⁻¹

B1: butelase 1: Asx-specific peptide ligase/cyclase isolated from Clitoria ternatea, amino acid sequence SEQ ID NO:1 (protein, listed as Clitoria ternatea)
chain: VEGTRWAVLVAGSKGYVNYRHQADVCHAYQILKKGGLKDENIIVFMYDDIAYNESNPHPGVIINHPYGSDVYKGVPKDYVGEDINPPNFYAVLLANKSALTGTGSGKVLDSGPNDHVFIYYTDHGGAGVLGMPSKPYIAASDLNDVLKKKHASGTYKSIVFYVESCESGSMFDGLLPEDHNIYVMGASDTGESSWVTYCPLQHPSPPPEYDVCVGDLFSVAWLEDCDVHNLQTETFQQQYEVVKNKTIVALIEDGTHVVQYGDVGLSKQTLFVYMGTDPANDNNTFTDKNSLGTPRKAVSQRDADLIHYWEKYRRAPEGSSRKAEAKKQLREVMAHRMHIDN
Stability of enzyme activity [4]: minimal loss of activity
Solubility in water (concentration achieved) [5]: 10000 µg/mL
Catalytic rate relative to sortase A (butelase 1 [2]; GFP as a model protein): ~10,000
Catalytic activities (butelase 1 [1]; highest value stated in the summary): ≤ 542,000 M^−s^−1
